Test results as given in patent US10717733B2, “Haloallylamine indole and azaindole derivative inhibitors of lysyl oxidases and uses thereof” (PHARMAXIS LTD., priority 2016, dated 2020).
Counter-ions that a name gives are not always drawn.

Assays:
Assay type in all cases: biochemical
Recombinant human MAO-B = Recombinant human MAO-B (Homo sapiens (Human), UniProt P27338); assay: Inhibition of human recombinant MAO-B; conditions: benzylamine 100 μM
Experimental: Method to Determine the Ability of Compounds of Formula I to Inhibit Human Recombinant MAO-B
The specificity of the compounds of this invention was tested by determining their ability to inhibit MAO-B activities in vitro. Recombinant human MAO-B (0.06 mg/mL; Sigma Aldrich) was used as source of MAO-B enzyme activities. The assay was performed in a similar way as for human SSAO/VAP-1 (Example 66) except, the substrate benzylamine was used at 100 μM.

Human LOXL2 = Human LOXL2 (Homo sapiens (Human), UniProt Q9Y4K0); assay: LOXL2 inhibition, peroxidase-coupled Amplex Red amine oxidase assay; conditions: 30 min preincubation at 37° C., putrescine substrate
Text: (§1) Method to Determine the Ability of Compounds of the Invention to Inhibit LOX and LOXL1-4 from Different Sources
(§2) Lysyl oxidase (LOX) is an extracellular copper dependent enzyme which oxidizes peptidyl lysine and hydroxylysine residues in collagen and lysine residues in elastin to produce peptidyl alpha-aminoadipic-delta-semialdehydes. […] There are five LOX family members; these are LOX, LOXL1, LOXL2, LOXL3 and LOXL4. LOX and LOXL family members can be acquired as recombinant active proteins from commercial sources, or extracted from animal tissues like bovine aorta, tendons, pig skin; or prepared from cell cultures. The inhibitory effects of the compounds of the present invention were tested against the given LOX-LOXL preparation using a high-throughput coupled colorimetric method (Holt A. and Palcic M., A peroxidase-coupled continuous absorbance plate-reader assay for flavin monoamine oxidases, copper-containing amine oxidases and related enzymes. Nat. Protoc. 2006; 1: 2498-2505). The assay was developed using either 384 or 96 well format. Briefly, in a standard 384 well plate assay 25 μL of a dilution of any of the isoenzymes and orthologues in 1.2 M urea, 50 mM sodium borate buffer (pH 8.2) were added into each well in the presence of 1 μM mofegiline and 0.5 mM pargyline (to inhibit SSAO and MAO-B and MAO-A, respectively). Test compounds were dissolved in DMSO and tested in a Concentration Response Curve (CRC) with 11 data points, typically in the micromolar or nanomolar range after incubation with the enzyme for 30 min at 37° C. Twenty five L of a reaction mixture containing twice the KM concentration of putrescine (Sigma Aldrich, e.g. 20 mM for LOX, or 10 mM for LOXL2 and LOXL3), 120 μM Amplex Red (Sigma Aldrich) and 1.5 U/mL horseradish peroxidase (Sigma Aldrich) prepared in 1.2 M urea, 50 mM sodium borate buffer (pH 8.2) were then added to the corresponding wells. The above volumes were doubled in the case of 96 wells plate. The fluorescence (RFU) was read every 2.5 min for 30 min at a range of temperatures from 37° to 45° C., excitation 565 nm and emission 590 (Optima; BMG labtech). The slope of the kinetics for each well was calculated using MARS data analysis software (BMG labtech) and this value was used to deduce the IC50 value (Dotmatics).

Bovine LOX = Bovine LOX (Bos taurus (Bovine), UniProt P33072); assay: LOX inhibition, peroxidase-coupled Amplex Red amine oxidase assay; conditions: 30 min preincubation at 37° C., putrescine substrate
Text: as §1
as §2, with “Test compounds were dissolved in DMSO and tested in a Concentration Response Curve (CRC) with 11 data points, typically in the micromolar or nanomolar range after incubation with the enzyme for 30 min at 37° C.” left out

[1] = biological target: human recombinant SSAO/VAP-1 (Homo sapiens (Human), UniProt Q16853); assay: Inhibition of human recombinant SSAO/VAP-1 amine oxidase activity; conditions: 30 min preincubation at 37° C., 600 μM benzylamine
Experimental: Method to Determine the Ability of Compounds of Formula I to Inhibit Human Recombinant SSAO/VAP-1
Human recombinant SSAO/VAP-1 amine oxidase activity was determined using the coupled colorimetric method as described for monoamine oxidase, copper-containing amine oxidases and related enzymes (Holt A. and Palcic M., A peroxidase-coupled continuous absorbance plate-reader assay for flavin monoamine oxidases, copper-containing amine oxidases and related enzymes. Nat Protoc 2006; 1: 2498-2505). Briefly, a cloned cDNA template corresponding to residues 34-763 of human SSAO/VAP-1, and incorporating a mouse Ig kappa (κ) signal sequence, N-terminal flag epitope tag and tobacco etch virus (TEV) cleavage site, was assembled in a mammalian expression vector (pLO-CMV) by Geneart AG. This vector containing human SSAO/VAP-1 residues was transfected into CHO-K1 glycosylation mutant cell line, Lec 8. A clone stably expressing human SSAO/VAP-1 was isolated and cultured in large scale. Active human SSAO/VAP-1 was purified and recovered using immunoaffinity chromatography. This was used as the source for SSAO/VAP-1 activity. A high-throughput colorimetric assay was developed using either 96 or 384 well format. Briefly, in a standard 96 well plate assay 50 μL of purified human SSAO/VAP-1 (0.25 μg/mL) in 0.1 M sodium phosphate buffer (pH 7.4) was added into each well. Test compounds were dissolved in DMSO and tested in a Concentration Response Curve (CRC) with 4-11 data points, typically in the micromolar or nanomolar range after incubation with human SSAO/VAP-1 for 30 min at 37° C. After 30 min incubation, 50 μL of the reaction mixture containing 600 μM benzylamine (Sigma Aldrich), 120 μM Amplex Red (Sigma Aldrich) and 1.5 U/mL horseradish peroxidase (Sigma Aldrich) prepared in 0.1 M sodium phosphate buffer (pH 7.4) were added to the corresponding well. The fluorescence unit (RFU) was read every 2.5 min for 30 min at 37° C. excitation 565 nm and emission 590 (Optima; BMG labtech). The slope of the kinetics for each well was calculated using MARS data analysis software (BMG labtech) and this value was used to deduce the IC50 value (Dotmatics).

Sequence of Human LOXL2 (Q9Y4K0 26-774): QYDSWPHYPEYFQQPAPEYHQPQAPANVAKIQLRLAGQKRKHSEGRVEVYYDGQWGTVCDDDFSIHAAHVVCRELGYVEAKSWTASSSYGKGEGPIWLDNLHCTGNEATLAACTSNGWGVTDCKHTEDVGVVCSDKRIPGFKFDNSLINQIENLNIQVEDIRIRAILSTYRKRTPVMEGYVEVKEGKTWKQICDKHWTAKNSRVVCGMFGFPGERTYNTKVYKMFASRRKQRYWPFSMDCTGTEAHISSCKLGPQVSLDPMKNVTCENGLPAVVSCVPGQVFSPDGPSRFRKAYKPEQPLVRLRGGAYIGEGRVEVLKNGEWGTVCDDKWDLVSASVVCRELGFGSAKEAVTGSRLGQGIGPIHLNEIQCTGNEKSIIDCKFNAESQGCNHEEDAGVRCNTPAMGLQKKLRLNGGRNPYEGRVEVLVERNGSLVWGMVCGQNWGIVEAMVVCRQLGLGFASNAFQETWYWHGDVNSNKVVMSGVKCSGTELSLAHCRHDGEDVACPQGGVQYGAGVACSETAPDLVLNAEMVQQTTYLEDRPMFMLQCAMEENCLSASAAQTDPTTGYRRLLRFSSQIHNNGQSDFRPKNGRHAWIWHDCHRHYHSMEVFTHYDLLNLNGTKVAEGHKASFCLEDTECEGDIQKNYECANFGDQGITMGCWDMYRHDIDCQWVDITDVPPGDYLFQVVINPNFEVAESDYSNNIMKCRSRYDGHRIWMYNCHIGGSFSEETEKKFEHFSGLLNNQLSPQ
Sequence of Bovine LOX (P33072 170-418): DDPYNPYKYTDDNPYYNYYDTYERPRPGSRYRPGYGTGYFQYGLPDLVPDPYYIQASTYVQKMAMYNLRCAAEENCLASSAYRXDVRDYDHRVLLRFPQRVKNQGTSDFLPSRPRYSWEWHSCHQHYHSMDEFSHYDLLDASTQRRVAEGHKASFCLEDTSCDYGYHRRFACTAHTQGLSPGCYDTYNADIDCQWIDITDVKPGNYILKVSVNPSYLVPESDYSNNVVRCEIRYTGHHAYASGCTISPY
Sequence of human recombinant SSAO/VAP-1 (Q16853 34-763): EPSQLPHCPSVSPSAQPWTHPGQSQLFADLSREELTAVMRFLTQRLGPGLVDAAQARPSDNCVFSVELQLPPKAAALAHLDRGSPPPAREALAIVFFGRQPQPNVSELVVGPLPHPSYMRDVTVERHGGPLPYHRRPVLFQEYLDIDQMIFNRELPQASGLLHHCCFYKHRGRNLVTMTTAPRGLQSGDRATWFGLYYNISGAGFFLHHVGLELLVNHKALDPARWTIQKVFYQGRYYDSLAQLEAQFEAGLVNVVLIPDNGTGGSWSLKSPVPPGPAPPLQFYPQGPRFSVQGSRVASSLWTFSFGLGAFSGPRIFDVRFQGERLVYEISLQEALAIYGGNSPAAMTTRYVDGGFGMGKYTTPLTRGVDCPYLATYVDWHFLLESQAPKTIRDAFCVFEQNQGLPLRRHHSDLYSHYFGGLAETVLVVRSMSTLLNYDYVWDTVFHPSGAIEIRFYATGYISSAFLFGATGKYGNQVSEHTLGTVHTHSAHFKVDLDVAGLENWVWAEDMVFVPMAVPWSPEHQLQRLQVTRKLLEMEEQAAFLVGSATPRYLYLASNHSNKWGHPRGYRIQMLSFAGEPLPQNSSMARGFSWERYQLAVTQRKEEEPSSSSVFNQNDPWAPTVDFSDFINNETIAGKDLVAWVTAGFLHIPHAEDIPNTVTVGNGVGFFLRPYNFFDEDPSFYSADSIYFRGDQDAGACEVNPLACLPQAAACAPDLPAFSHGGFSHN
Sequence of Recombinant human MAO-B (P27338 whole entry): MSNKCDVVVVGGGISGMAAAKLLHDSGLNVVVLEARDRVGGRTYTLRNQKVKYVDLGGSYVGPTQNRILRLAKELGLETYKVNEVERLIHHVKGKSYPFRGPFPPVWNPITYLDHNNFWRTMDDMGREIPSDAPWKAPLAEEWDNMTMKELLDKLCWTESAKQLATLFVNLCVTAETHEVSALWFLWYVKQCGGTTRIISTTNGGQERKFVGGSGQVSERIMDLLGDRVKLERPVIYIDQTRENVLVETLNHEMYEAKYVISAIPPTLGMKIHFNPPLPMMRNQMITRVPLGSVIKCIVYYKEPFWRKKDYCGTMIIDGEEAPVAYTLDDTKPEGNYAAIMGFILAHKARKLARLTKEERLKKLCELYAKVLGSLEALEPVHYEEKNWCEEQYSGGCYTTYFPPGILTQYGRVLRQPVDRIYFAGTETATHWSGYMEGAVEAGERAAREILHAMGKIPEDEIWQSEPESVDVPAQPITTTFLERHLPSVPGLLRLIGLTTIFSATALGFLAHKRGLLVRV

| Compound | IC50 (Recombinant human MAO-B) | IC50 (Human LOXL2) | IC50 (Bovine LOX) | IC50 [1] |
| --- | --- | --- | --- | --- |
| Cc1c(-c2cncc(S(=O)(=O)N(C)C)c2)c2cc(Cl)cnc2n1C/C(F)=C/CN [Compound 73, (Z)-5-(1-(4-amino-2-fluorobut-2-en-1-yl)-5-chloro-2-methyl-1H-pyrrolo[2,3-b]pyridin-3-yl)-N,N-dimethylpyridine-3-sulfonamide] | > 3 µM | < 0.3 µM | > 0.3 µM | > 3 µM |
| COc1ccc2c(n1)c(-c1cccc(S(C)(=O)=O)c1)c(C)n2C/C(F)=C/CN [Compound 69, (Z)-3-fluoro-4-(5-methoxy-2-methyl-3-(3-(methylsulfonyl)phenyl)-1H-pyrrolo[3,2-b]pyridin-1-yl)but-2-en-1-amine Dihydrochloride] | > 3 µM | < 0.3 µM | > 0.3 µM | > 3 µM |
| Cc1c(-c2cccc(S(=O)(=O)N(C)C)c2)c2cc(S(=O)(=O)C(C)C)ccc2n1C/C(F)=C/CN [Compound 106, (Z)-3-(1-(4-amino-2-fluorobut-2-en-1-yl)-5-(isopropylsulfonyl)-2-methyl-1H-indol-3-yl)-N,N-dimethyl-benzenesulfonamide Hydrochloride] | > 3 µM | < 0.3 µM | > 0.3 µM | > 3 µM |
| Cc1c(-c2cccc(S(=O)(=O)N(C)C)c2)c2cccc(C(=O)N(C)C)c2n1C/C(F)=C/CN [Compound 47, (Z)-1-(4-amino-2-fluorobut-2-en-1-yl)-3-(3-(N,N-dimethylsulfamoyl)phenyl)-N,N,2-trimethyl-1H-indole-7-carboxamide] | > 3 µM | < 0.3 µM | > 0.3 µM | > 3 µM |
| Cc1c(-c2cccc(S(=O)(=O)N(C)C)c2)c2cc(-c3ncon3)ccc2n1C/C(F)=C/CN [Compound 55, (Z)-3-(1-(4-amino-2-fluorobut-2-en-1-yl)-2-methyl-5-(1,2,4-oxadiazol-3-yl)-1H-indol-3-yl)-N,N-dimethylbenzenesulfonamide] | > 3 µM | < 0.3 µM | > 0.3 µM | > 3 µM |
| Cc1c(-c2ccc(F)cc2)c2cc(S(C)(=O)=O)ccc2n1C/C(F)=C/CN [Compound 93, (Z)-3-fluoro-4-(3-(4-fluorophenyl)-2-methyl-5-(methylsulfonyl)-1H-indol-1-yl)but-2-en-1-amine] | > 3 µM | < 0.3 µM | > 0.3 µM | > 3 µM |
| Cc1c(-c2ccccc2)c2cc(S(C)(=O)=O)ccc2n1C/C(F)=C/CN [Compound 87, (Z)-3-fluoro-4-(2-methyl-5-(methylsulfonyl)-3-phenyl-1H-indol-1-yl)but-2-en-1-amine] | > 3 µM | < 0.3 µM | > 0.3 µM | > 3 µM |
| Cc1c(-c2cccc(S(C)(=O)=O)c2)c2cc(C(=O)O)ccc2n1C/C(F)=C/CN [Compound 14, (Z)-1-(4-amino-2-fluorobut-2-en-1-yl)-2-methyl-3-(3-(methylsulfonyl)phenyl)-1H-indole-5-carboxylic acid] | > 3 µM | < 0.3 µM | > 0.3 µM | > 3 µM |
| Cc1c(-c2ccncc2)c2cc(S(=O)(=O)N(C)C)ccc2n1C/C(F)=C/CN [Compound 81, (Z)-1-(4-amino-2-fluorobut-2-en-1-yl)-N,N,2-trimethyl-3-(pyridin-4-yl)-1H-indole-5-sulfonamide] | > 3 µM | < 0.3 µM | > 0.3 µM | > 3 µM |
| COCc1ccc2c(n1)c(-c1cccc(S(=O)(=O)N(C)C)c1)c(C)n2C/C(F)=C/CN [Compound 103, (Z)-3-(1-(4-amino-2-fluorobut-2-en-1-yl)-5-(methoxymethyl)-2-methyl-1H-pyrrolo[3,2-b]pyridin-3-yl)-N,N-dimethylbenzenesulfonamide] | > 3 µM | < 0.3 µM | > 0.3 µM | > 3 µM |
| Cc1c(-c2cccc(S(=O)(=O)N(C)C)c2)c2ccccc2n1C/C(F)=C/CN [Compound 2, (Z)-3-(1-(4-amino-2-fluorobut-2-en-1-yl)-2-methyl-1H-indol-3-yl)-N,N-dimethylbenzenesulfonamide] | > 3 µM | < 0.3 µM | > 0.3 µM | > 3 µM |
| Cc1c(-c2cccc(S(=O)(=O)N(C)C)c2)c2ncc(F)cc2n1C/C(F)=C/CN [Compound 108, (Z)-3-(1-(4-amino-2-fluorobut-2-en-1-yl)-6-fluoro-2-methyl-1H-pyrrolo[3,2-b]pyridin-3-yl)-N,N-dimethylbenzenesulfonamide] | > 3 µM | < 0.3 µM | > 0.3 µM | > 3 µM |
| Cc1c(-c2cccc(S(=O)(=O)N(C)C)c2)c2cc(C(=O)O)c(F)cc2n1C/C(F)=C/CN [Compound 21, (Z)-1-(4-amino-2-fluorobut-2-en-1-yl)-3-(3-(N,N-dimethylsulfamoyl)phenyl)-6-fluoro-2-methyl-1H-indole-5-carboxylic acid] | > 3 µM | < 0.3 µM | > 0.3 µM | > 3 µM |
| Cc1c(-c2cccc(S(=O)(=O)N(C)C)c2)c2ccc(C(N)=O)cc2n1C/C(F)=C/CN [Compound 11, (Z)-1-(4-amino-2-fluorobut-2-en-1-yl)-3-(3-(N,N-dimethylsulfamoyl)phenyl)-2-methyl-1H-indole-6-carboxamide] | > 3 µM | < 0.3 µM | > 0.3 µM | > 3 µM |
